Values of other authors, collected in patent publication US12662687B2, “Methods and compositions for the production of xylitol from xylose utilizing dynamic metabolic control” (Duke University, priority 2020, dated 2026).

Target: membrane bound transhydrogenase encoded by the pntAB genes (Escherichia coli, UniProt P07001+P0AB67)
Conditions: competitive inhibitor, reported value

membrane bound transhydrogenase encoded by the pntAB genes, sequence (P07001 whole entry): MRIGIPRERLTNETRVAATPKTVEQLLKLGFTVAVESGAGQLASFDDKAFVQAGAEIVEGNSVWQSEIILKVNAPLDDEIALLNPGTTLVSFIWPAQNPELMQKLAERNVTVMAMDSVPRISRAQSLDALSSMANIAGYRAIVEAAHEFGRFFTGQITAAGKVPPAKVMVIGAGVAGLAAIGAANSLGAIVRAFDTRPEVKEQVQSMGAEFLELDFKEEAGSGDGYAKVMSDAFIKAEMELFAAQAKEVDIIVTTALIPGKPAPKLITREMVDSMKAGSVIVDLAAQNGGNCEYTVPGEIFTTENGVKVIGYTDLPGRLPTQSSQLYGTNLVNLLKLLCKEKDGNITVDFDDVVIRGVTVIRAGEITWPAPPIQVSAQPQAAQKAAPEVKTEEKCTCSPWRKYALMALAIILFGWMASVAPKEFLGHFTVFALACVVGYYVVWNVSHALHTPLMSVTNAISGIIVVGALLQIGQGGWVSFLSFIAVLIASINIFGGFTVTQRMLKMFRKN
membrane bound transhydrogenase encoded by the pntAB genes, sequence (P0AB67 whole entry): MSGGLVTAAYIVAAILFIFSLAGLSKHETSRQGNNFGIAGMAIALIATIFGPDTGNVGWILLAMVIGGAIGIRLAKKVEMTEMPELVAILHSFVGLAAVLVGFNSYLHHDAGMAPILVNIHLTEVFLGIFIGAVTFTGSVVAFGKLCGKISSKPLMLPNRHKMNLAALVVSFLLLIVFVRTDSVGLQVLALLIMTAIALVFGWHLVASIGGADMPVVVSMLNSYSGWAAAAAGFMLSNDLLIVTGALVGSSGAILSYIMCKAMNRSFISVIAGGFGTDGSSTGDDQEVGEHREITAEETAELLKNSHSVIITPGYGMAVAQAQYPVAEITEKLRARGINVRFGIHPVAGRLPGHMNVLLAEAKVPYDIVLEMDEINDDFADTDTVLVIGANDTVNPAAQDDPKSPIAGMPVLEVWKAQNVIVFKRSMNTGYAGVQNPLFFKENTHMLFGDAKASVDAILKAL

SMILES: CCCCCCCCCCCCCCCC(=O)SCCNC(=O)CCNC(=O)[C@H](O)C(C)(C)COP(=O)(O)OP(=O)(O)OC[C@H]1O[C@@H](n2cnc3c(N)ncnc32)[C@H](O)[C@@H]1OP(=O)(O)O [Palmitoyl-CoA]
- Ki: 1000 to 5000 nM
